Holding throughout (assay): In vitro antibacterial activity (MIC), two-fold agar-plate dilution method
What all share (assay type): cell-based

The subject of experiment [1] is Pseudomonas aeruginosa 22027. As to conditions: Pseudomonas aeruginosa 22027, metallo β-lactamase producing strain, HI-agar, 37° C. for 20 hours. As to the method: (§1) Now in order to show the utility of the object compound [I], the test data on MIC (minimal inhibitory concentration) of a representative compound of this invention are shown in the following.
(§2) In vitro antibacterial activity was determined by the two-fold agar-plate dilution method as described below.
(§3) One loopful of an overnight culture of each test strain in Trypticase-soy broth (10^6 viable cells per ml) was streaked on heart infusion agar (HI-agar) containing graded concentrations of representative test compound, and the minimal inhibitory concentration (MIC) was expressed in μg/ml after incubation at 37° C. for 20 hours.

The test system of experiment [2] is Pseudomonas aeruginosa FP 1380. Particulars: Pseudomonas aeruginosa FP 1380, AmpC β-lactamase overproduced strain, HI-agar, 37° C. for 20 hours. The method, then: as §1, §2, §3
The test system of experiment [3] is Pseudomonas aeruginosa 19136. As to conditions: Pseudomonas aeruginosa 19136, metallo β-lactamase producing strain, HI-agar, 37° C. for 20 hours. As to the method: as §1, §2, §3

Values after ≈ are worked out from the molar mass of the structure shown. Where two headings read alike, the source gives them in different places.

“7β-[(Z)-2-(5-amino-1,2,4-thiadiazol-3-yl)-2-(1-carboxy-1-methylethoxyimino)acetamido]-3-{3-[1-(3-aminopropyl)guanidino]-2,3-dihydro-5-(1H-imidazo[1,2-b]pyrazolio)}methyl-3-cephem-4-carboxylate sulfate [Compound (A)]”: the MIC in experiment [1] was 8 mg/L; in experiment [2], 0.5 mg/L; in experiment [3], 2 mg/L.

As for `C[C@H]1[C@H](NC(=O)/C(=N\OC(C)(C)C(=O)O)c2csc(N)n2)C(=O)N1S(=O)(=O)O` [Aztreonam, reference compound], the MIC in experiment [1] (read-out: MIC) was determined as 32 mg/L (≈ 73.5 µM); in experiment [2] (FP1380, read-out: MIC), 64 mg/L (≈ 147 µM); in experiment [3] (read-out: MIC), 4 mg/L (≈ 9.19 µM).

Take `CC(C)(O/N=C(\C(=O)N[C@@H]1C(=O)N2C(C(=O)O)=C(C[n+]3cc(N(CCN)C(=N)N)c4n3CCCN4)CS[C@H]12)c1nsc(N)n1)C(=O)O.O=S(=O)([O-])O` [Compound (B), 7β-[(Z)-2-(5-amino-1,2,4-thiadiazol-3-yl)-2-(1-carboxy-1-methylethoxyimino)acetamido]-3-{3-[1-(2-aminoethyl)guanidino]-4,5,6,7-tetrahydro-1-(pyrazolo[1,5-a]pyrimidinio)}methyl-3-cephem-4-carboxylate sulfate]: the MIC was found to be 8 mg/L in experiment [1], 0.5 mg/L in experiment [2] and 2 mg/L in experiment [3].

The values above are taken from US20090012054A1, “Cephem Compounds and Use as Antimicrobial Agents” (priority 2006, published 2009).
